Structures are written as SMILES. Structures can show the parent of a compound that is named as a salt.

The target in the experiment is T1, Recombinant human HSD17B13 enzyme (Homo sapiens, UniProt Q7Z5P4).
T1 sequence (Q7Z5P4 20-300): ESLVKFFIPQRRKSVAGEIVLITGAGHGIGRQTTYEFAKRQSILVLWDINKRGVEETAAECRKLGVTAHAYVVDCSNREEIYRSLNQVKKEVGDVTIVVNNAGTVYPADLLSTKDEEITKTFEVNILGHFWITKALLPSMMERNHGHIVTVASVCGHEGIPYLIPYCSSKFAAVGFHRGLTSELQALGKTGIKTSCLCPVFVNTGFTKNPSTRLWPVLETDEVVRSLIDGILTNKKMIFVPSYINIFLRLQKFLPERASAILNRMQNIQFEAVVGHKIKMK
The experiment is described as follows: HSD17b13 NAD(P)H-Glo biochemical assay. Conditions: 50 μM estradiol, 1 mM NAD+, 37° C. for 3 hours; read-out: HSD17β13 IC50. Summed up:
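Enzyme preincubated with inhibitor 20 min at RT in 20 mM Tris pH7.4, 0.002% Tween-20, 0.02% BSA, then reacted 3 h at 37° C with 50 μM estradiol and 1 mM NAD+ (final). NADH formation read by NAD(P)H-Glo luminescence after 1 h at RT.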
The IC50 is the midpoint of a concentration-inhibition curve. For the molecule `CS(=O)(=O)N1CCN(c2cc3cnn(-c4cc(C(F)(F)F)c(F)c(O)c4F)c3cn2)[C@H](Cc2ccccc2)C1` [Compound 2.19, (R)-3-(5-(2-Benzyl-4-(methylsulfonyl)piperazin-1-yl)-1H-pyrazolo[3,4-c]pyridin-1-yl)-2,6-difluoro-5-(trifluoromethyl)phenol], the half-maximal inhibitory concentration (IC50) is at most 0.1 µM.
Under `Cn1nc(-c2cc(C(F)(F)F)c(F)c(O)c2F)c2cnc(N3CCOC[C@@H]3CC3CCCCC3)nc21` [Compound 15.05, (S)-3-(6-(3-(Cyclohexylmethyl)morpholino)-1-methyl-1H-pyrazolo[3,4-d]pyrimidin-3-yl)-2,6-difluoro-5-(trifluoromethyl)phenol] stands at most 0.1 µM; under `Cn1nc(-c2cc(C(F)(F)F)c(F)c(O)c2F)c2cnc(N3CCOC[C@@H]3Cc3ccccc3)nc21` [Compound 5.09, (S)-3-(6-(3-Benzylmorpholino)-1-methyl-1H-pyrazolo[3,4-d]pyrimidin-3-yl)-2,6-difluoro-5-(trifluoromethyl)phenol], at most 0.1 µM; under `CNc1nn(-c2cc(C(F)(F)F)c(F)c(O)c2F)c2cnc(N3CCN(S(C)(=O)=O)C[C@H]3Cc3ccccc3)cc12` [Compound 2.24, (R)-3-(5-(2-Benzyl-4-(methylsulfonyl)piperazin-1-yl)-3-(methylamino)-1H-pyrazolo[3,4-c]pyridin-1-yl)-2,6-difluoro-5-(trifluoromethyl)phenol], at most 0.1 µM.
`CS(=O)(=O)N1CCN(c2ccc(-n3nnc4cc(F)c(O)c(F)c43)cc2)[C@@H](Cc2ccccc2)C1` [Compound 1.01, (S)-1-(4-(2-Benzyl-4-(methylsulfonyl)piperazin-1-yl)phenyl)-5,7-difluoro-1H-benzo[d][1,2,3]triazol-6-ol]: the 50% inhibitory concentration (IC50) was 0.1 to 1 µM.
For `CC(=O)N1CCN(c2ncc3c(-c4cc(C(F)(F)F)c(F)c(O)c4F)nn(C)c3n2)C[C@H]1Cc1ccccc1` [Compound 6.05, (R)-1-(2-Benzyl-4-(3-(2,4-difluoro-3-hydroxy-5-(trifluoromethyl)phenyl)-1-methyl-1H-pyrazolo[3,4-d]pyrimidin-6-yl)piperazin-1-yl)ethan-1-one], the half-inhibitory concentration (IC50) is at most 0.1 µM.
Turning to `CS(=O)(=O)N1CCN(c2ccc(-n3nnc4cc(F)c(O)c(F)c43)cc2)C[C@H]1Cc1ccccc1` [Compound 1.03, (R)-1-(4-(3-Benzyl-4-(methylsulfonyl)piperazin-1-yl)phenyl)-5,7-difluoro-1H-benzo[d][1,2,3]triazol-6-ol], the 50% inhibitory concentration (IC50) was at most 0.1 µM.
Take `Cn1nc(-c2cc(C(F)(F)F)c(F)c(O)c2F)c2cnc(N3CCO[C@@H](Cc4cccnc4)C3)nc21` [Compound 12.01, (S)-2,6-Difluoro-3-(1-methyl-6-(2-(pyridin-3-ylmethyl)morpholino)-1H-pyrazolo[3,4-d]pyrimidin-3-yl)-5-(trifluoromethyl)phenol]: the IC50 is at most 0.1 µM.
Take `Oc1c(F)cc2nnn(-c3ccc(N4CCCC(Cc5ccccc5)CC4)cc3)c2c1F` (stereo not drawn) [Compound 1.09, 1-(4-(4-Benzylazepan-1-yl)phenyl)-5,7-difluoro-1H-benzo[d][1,2,3]triazol-6-ol]: the half-maximal inhibitory concentration (IC50) was at most 0.1 µM.
With `CN1CCN(c2ncc3c(-c4cc(C(F)(F)F)c(F)c(O)c4F)nn(C)c3n2)CC1Cc1ccccc1` (stereo not drawn) [Compound 5.07, 3-(6-(3-Benzyl-4-methylpiperazin-1-yl)-1-methyl-1H-pyrazolo[3,4-d]pyrimidin-3-yl)-2,6-difluoro-5-(trifluoromethyl)phenol], the concentration for half-maximal inhibition (IC50) was at most 0.1 µM.
Take `Cc1nn(-c2cc(O)cc(C(F)(F)F)c2)c2ccc(N3CCN(S(C)(=O)=O)C[C@H]3Cc3ccccc3)cc12` [Compound 2.26, (R)-3-(5-(2-Benzyl-4-(methylsulfonyl)piperazin-1-yl)-3-methyl-1H-indazol-1-yl)-5-(trifluoromethyl)phenol]: the 50% inhibitory concentration (IC50) fell in the range of 0.1 to 1 µM.
Take `CC(C)NC(=O)[C@@H]1COCCN1c1ncc2c(-c3cc(C(F)(F)F)c(F)c(O)c3F)nn(C)c2n1` [Compound 11.24, (S)-4-(3-(2,4-Difluoro-3-hydroxy-5-(trifluoromethyl)phenyl)-1-methyl-1H-pyrazolo[3,4-d]pyrimidin-6-yl)-N-isopropylmorpholine-3-carboxamide]: the concentration for half-maximal inhibition (IC50) is at most 0.1 µM.
Consider `Cn1nc(-c2cc(O)c(F)c(F)c2C#N)c2cnc(N3CCN(S(C)(=O)=O)C[C@H]3Cc3ccccc3)nc21` [Compound 11.15, (R)-6-(6-(2-Benzyl-4-(methylsulfonyl)piperazin-1-yl)-1-methyl-1H-pyrazolo[3,4-d]pyrimidin-3-yl)-2,3-difluoro-4-hydroxybenzonitrile], for which the IC50 is at most 0.1 µM.
As for `CS(=O)(=O)N1CCN(c2ncc3c(-c4cc(C(F)(F)F)c(F)c(O)c4F)n[nH]c3n2)[C@H](Cc2ccccc2)C1` [Compound 5.18, (R)-3-(6-(2-Benzyl-4-(methylsulfonyl)piperazin-1-yl)-1H-pyrazolo[3,4-d]pyrimidin-3-yl)-2,6-difluoro-5-(trifluoromethyl)phenol], the IC50 was at most 0.1 µM.
For `Cn1nc(-c2cc(C(F)(F)F)c(F)c(O)c2F)c2cnc(C3CCCCN3Cc3ccccc3)nc21` (stereo not drawn) [Compound 14, 3-(6-(1-Benzylpiperidin-2-yl)-1-methyl-1H-pyrazolo[3,4-d]pyrimidin-3-yl)-2,6-difluoro-5-(trifluoromethyl)phenol hydrochloride], the IC50 lay in the range of 0.1 to 1 µM.
Turning to `Cn1nc(-c2cc(C(F)(F)F)c(F)c(O)c2F)c2cnc(C3CCCN(Cc4ccccc4)C3)nc21` (stereo not drawn) [Compound 14.01, 3-(6-(1-Benzylpiperidin-3-yl)-1-methyl-1H-pyrazolo[3,4-d]pyrimidin-3-yl)-2,6-difluoro-5-(trifluoromethyl)phenol hydrochloride], the 50% inhibitory concentration (IC50) lay within 0.1 to 1 µM.
For `CN(c1ncc2c(-c3cc(C(F)(F)F)c(F)c(O)c3F)nn(C)c2n1)C1CCCN(Cc2ccccc2)C1` (stereo not drawn) [Compound 5.36, 3-(6-((1-Benzylpiperidin-3-yl)(methyl)amino)-1-methyl-1H-pyrazolo[3,4-d]pyrimidin-3-yl)-2,6-difluoro-5-(trifluoromethyl)phenol], the IC50 is at most 0.1 µM.
`Cn1nc(-c2cc(C(F)(F)F)c(F)c(O)c2F)c2cnc(N3CCOC[C@H]3C(=O)N3CCCCC3)nc21` [Compound 11.26, (S)-(4-(3-(2,4-Difluoro-3-hydroxy-5-(trifluoromethyl)phenyl)-1-methyl-1H-pyrazolo[3,4-d]pyrimidin-6-yl)morpholin-3-yl)(piperidin-1-yl)methanone]: the half-maximal inhibitory concentration (IC50) is at most 0.1 µM.
In the case of `Cn1nc(-c2cc(C(F)(F)F)c(F)c(O)c2F)c2cnc(N3CCOC[C@H]3C(=O)NC3CCCCC3)nc21` [Compound 11.25, (S)-N-Cyclohexyl-4-(3-(2,4-difluoro-3-hydroxy-5-(trifluoromethyl)phenyl)-1-methyl-1H-pyrazolo[3,4-d]pyrimdiin-6-yl)morpholine-3-carboxamide], the IC50 was at most 0.1 µM.
Turning to `CS(=O)(=O)N1CCN(c2ncc3c(n2)c(Cl)nn3-c2cc(C(F)(F)F)c(F)c(O)c2F)[C@H](Cc2ccccc2)C1` [Compound 2.18, (R)-3-(5-(2-Benzyl-4-(methylsulfonyl)piperazin-1-yl)-3-chloro-1H-pyrazolo[4,3-d]pyrimidin-1-yl)-2,6-difluoro-5-(trifluoromethyl)phenol], the half-inhibitory concentration (IC50) was at most 0.1 µM.
For `Cn1nc(-c2cc(F)c(F)c(O)c2F)c2cnc(N3CCN(S(C)(=O)=O)C[C@H]3Cc3ccccc3)nc21` [Compound 11.09, (R)-3-(6-(2-Benzyl-4-(methylsulfonyl)piperazin-1-yl)-1-methyl-1H-pyrazolo[3,4-d]pyrimidin-3-yl)-2,5,6-trifluorophenol] the value was at most 0.1 µM; for `CS(=O)(=O)N1CCN(c2ncc3c(cnn3-c3cc(O)c(F)c(C(F)(F)F)c3)n2)[C@H](Cc2ccccc2)C1` [Compound 2.36, (R)-5-(5-(2-Benzyl-4-(methylsulfonyl)piperazin-1-yl)-1H-pyrazolo[4,3-d]pyrimidin-1-yl)-2-fluoro-3-(trifluoromethyl)phenol], at most 0.1 µM.
With `Cn1nc(-c2cc(C(F)(F)F)c(F)c(O)c2F)c2cnc(N3CCO[C@@H](Cc4ccc(C(N)=O)cc4)C3)nc21` [Compound 12.04, (S)-4-((4-(3-(2,4-Difluoro-3-hydroxy-5-(trifluoromethyl)phenyl)-1-methyl-1H-pyrazolo[3,4-d]pyrimidin-6-yl)morpholin-2-yl)methyl)benzamide], the IC50 was at most 0.1 µM.
In the case of `Cn1nc(-c2cc(C(F)(F)F)c(F)c(O)c2F)c2cnc(N3CC(=O)NC[C@H]3Cc3ccccc3)nc21` [Compound 15.09, (R)-5-Benzyl-4-(3-(2,4-difluoro-3-hydroxy-5-(trifluoromethyl)phenyl)-1-methyl-1H-pyrazolo[3,4-d]pyrimidin-6-yl)piperazin-2-one], the IC50 is at most 0.1 µM.
On to `Cc1nn(-c2cc(C(F)(F)F)c(F)c(O)c2F)c2cnc(N3CCOC[C@H]3Cc3ccccc3)nc12` [Compound 2.31, (R)-3-(5-(3-Benzylmorpholino)-3-methyl-1H-pyrazolo[4,3-d]pyrimidin-1-yl)-2,6-difluoro-5-(trifluoromethyl)phenol], for which the 50% inhibitory concentration (IC50) was at most 0.1 µM.
For `Cn1nc(-c2cc(C(F)(F)F)c(F)c(O)c2F)c2cnc(N3CCCCC3Cc3ccccn3)nc21` (stereo not drawn) [Compound 5.11, 2,6-Difluoro-3-(1-methyl-6-(2-(pyridin-2-ylmethyl)piperidin-1-yl)-1H-pyrazolo[3,4-d]pyrimidin-3-yl)-5-(trifluoromethyl)phenol], the IC50 is at most 0.1 µM.
With `Cn1nc(-c2cc(C(F)(F)F)c(F)c(O)c2F)c2cnc(N3CCO[C@@H](Cc4cccc(C#N)c4)C3)nc21` [Compound 12.03, (S)-3-((4-(3-(2,4-Difluoro-3-hydroxy-5-(trifluoromethyl)phenyl)-1-methyl-1H-pyrazolo[3,4-d]pyrimidin-6-yl)morpholin-2-yl)methyl)benzonitrile], the IC50 was at most 0.1 µM.

For the origin of these results see patent US20240368127A1, “HSD17B13 INHIBITORS AND USES THEREOF” (FL2022-001, Inc., priority 2021, published 2024).
